Where two headings read alike, the source gives them in different places.
Assays:
[1] = system: human nasal tissue mast cells activated with SCF; assay: Ex vivo SCF-induced tryptase release (degranulation) of human nasal tissue mast cells; type: cell-based; conditions: for Tryptase: with SCF; for inhibition at 1 µM / inhibition at 3 µM / inhibition at 10 µM / inhibition at 30 µM / inhibition at 60 µM / inhibition at 150 µM / inhibition at 300 µM / IC50: Homo sapiens, Mast cell; for inhibition at 1 µM / inhibition at 3 µM / inhibition at 10 µM / inhibition at 30 µM / inhibition at 60 µM / inhibition at 150 µM / inhibition at 300 µM: read-out: percentage inhibition of degranulation (tryptase); for IC50: read-out: IC50 ex vivo inhibition of tryptase degranulation; for HillSlope / LogIC50: SCF
Description: Fresh human nasal mucosa was used (middle nasal turbinate), which was surgically removed as standard procedure during nose correction surgeries (septorhinoplasty with conchotomy). Only tissues from those patients who had not previously received medication in the form of cortisone preparations or antihistamines were used. The removed tissue was cleansed immediately after the surgical removal with Epilife Medium (Thermo Fisher Scientific, No. […]500), referred to as “medium” in terms of ex vivo experiments, a chemically defined, serum-free full medium for epithelial cells and keratinocytes. The tissue was then cut into 12 pieces of equal size, cleansed again in the medium, and the exact fresh weight of the cut tissue pieces was determined for later normalization and then stored overnight in cold medium. The weight of the tissue pieces varied between 10 and 20 mg.
After an one hour of pre-incubation with the respective compositions i) or ii), 0.4 μg/ml stem cell growth factor (SCF, Peprotech) was added to each well—except for one well serving as the negative control—in order to induce tryptase degranulation. […] Immediately after the removal of 250 μl supernatant, the volume in each well was increased to the original level and the original composition by adding 250 μl of the respective composition i), and ii).
For the determination of the amount of degranulated tryptase, the frozen supernatants were thawed at 22° C. and then subjected to a tryptase ELISA Kit from Boster Biological Technology Co., Ltd (No. EZ0898, Assay Range: 156-10000 pg/ml, Sensitivity: <15 pg/ml) according to manufacturer's instructions, and the ELISA measurements were performed with the Multiskan Go instrument from Thermo Scientific and the SkanIt Re 4.1 software.
The statistical analysis was conducted in two steps. In a first step, the raw measurement values were normalized to 10 mg tissue. In a second step, a correction factor was introduced for all time points of supernatant removal to compensate for the 250 μl supernatant taken for analysis at each time and the subsequent re-addition of medium incl. factors. The statistical calculations were performed with Microsoft Excel 2010.
For the analysis, a non-linear regression (variable slope—4-parametric) was used. The program setting “Dose-Response-Inhibition” was applied for an automatic calculation, readout and display of the IC50 values.

[2] = system: murine bone marrow-derived mast cells (BMMCs); assay: In vitro release of β-hexosaminidase (degranulation) from IgE-preloaded murine bone marrow-derived mast cells; type: cell-based, mice
Experimental: According to the technique established by Razin et al. (Proc. Natl. Acad. Sci. USA 1981, 78:2559-2561), bone marrow cells (1×10^6/ml) from 6 to 8 week old mice (129/Sv×C57BL/6) were cultured (37° C. and 5% CO2) as single cell suspensions in RPMI 1640 medium (Sigma-Aldrich, Munich, Germany) supplemented with 15% fetal calf serum (FCS), 1% X63Ag8-653-conditioned medium (Karasuyama and Melchers, Eur. J. Immunol. 1988, 18:97-104), 2 mM L-glutamine, 10 μM β-mercaptoethanol, 50 units/ml penicillin, and […] streptomycin. At weekly intervals, the non-adherent cells were reseeded at 5×10^5 cells/ml in fresh medium. After 4-6 weeks in culture, greater than 99% of the cells were KIT- and […] as assessed by fluorescence-activated cell sorting (FACS) using phycoerythrin-labeled anti-KIT antibodies (Pharmingen, Mississauga, Canada) and fluorescein isothiocyanate (FITC)-labelled hamster anti-mouse FcεRIα antibodies (eBioscience, Frankfurt, Germany), respectively. The resulting cells are called bone marrow-derived mast cells (BMMCs).
For degranulation studies, BMMCs were preloaded with 0.15 μg/ml IgE anti-DNP (dinitrophenyl; Sigma Aldrich, Munich, Germany) overnight at 37° C. The cells were then washed and resuspended in Tyrode's buffer (130 mM NaCl, 5 mM KCl, 1.4 mM CaCl2, 1 mM MgCl2, 5.6 mM glucose, and 0.1% bovine serum albumin (BSA) in 10 mM Hepes, pH 7.4).
Subsequently, the cells were left unstimulated (unst) or stimulated with 20 ng/ml antigen (Ag: dinitrophenyl-human serum albumin ([DNP-HSA]; dissolved in medium); Sigma Aldrich, Munich, Germany) for 30 min. The degree of degranulation was determined by measuring the release of β-hexosaminidase (Nishizumi et al., J Immunol 1997; 158:2350-2355). Experiments were performed in triplicates.

[3] = Mus musculus, BMMC, read-out: percentage of inhibition of β-hexosaminidase release

Question: `CCNC1=Nc2ccc(Cl)cc2C(C)(c2ccccc2)O1` (racemic) [Etifoxine, 6-Chloro-2-N-ethyl-4-methyl-4-phenyl-4H-3,1-benzoxazine-2-amine] was tested. Which Tryptase ([1]; 1 μM Etifoxine, 120 min) did it give?
Answer: 12.1 pg/ml/10 mg tissue

Question: What about the Tryptase ([1]; 1 μM Etifoxine, 240 min) of the same compound?
Answer: 1113.7 pg/ml/10 mg tissue

Question: And the Tryptase ([1]; 1 μM Etifoxine, 480 min)?
Answer: 1791.7 pg/ml/10 mg tissue

Question: And the Tryptase ([1]; 1 μM Etifoxine, 1440 min)?
Answer: 5547.4 pg/ml/10 mg tissue

Question: And the Tryptase ([1]; 3 μM Etifoxine, 120 min)?
Answer: 38.7 pg/ml/10 mg tissue

Question: And the Tryptase ([1]; 3 μM Etifoxine, 240 min)?
Answer: 1030.3 pg/ml/10 mg tissue

Question: What about the Tryptase ([1]; 3 μM Etifoxine, 480 min) of the same compound?
Answer: 1789.0 pg/ml/10 mg tissue

Question: What about the Tryptase ([1]; 3 μM Etifoxine, 1440 min) of the same compound?
Answer: 5512.9 pg/ml/10 mg tissue

Question: What about the Tryptase ([1]; 10 μM Etifoxine, 120 min) of the same compound?
Answer: 71.9 pg/ml/10 mg tissue

Question: And the Tryptase ([1]; 10 μM Etifoxine, 240 min)?
Answer: 594.5 pg/ml/10 mg tissue

Question: And the Tryptase ([1]; 10 μM Etifoxine, 480 min)?
Answer: 1284.9 pg/ml/10 mg tissue

Question: And the Tryptase ([1]; 10 μM Etifoxine, 1440 min)?
Answer: 3185.9 pg/ml/10 mg tissue

Question: And the Tryptase ([1]; 30 μM Etifoxine, 120 min)?
Answer: 109.4 pg/ml/10 mg tissue

Question: And the Tryptase ([1]; 30 μM Etifoxine, 240 min)?
Answer: 449.9 pg/ml/10 mg tissue

Question: And the Tryptase ([1]; 30 μM Etifoxine, 480 min)?
Answer: 979.7 pg/ml/10 mg tissue

Question: What about the Tryptase ([1]; 30 μM Etifoxine, 1440 min) of the same compound?
Answer: 2400.2 pg/ml/10 mg tissue

Question: What about the Tryptase ([1]; 60 μM Etifoxine) of the same compound?
Answer: 1218.2 pg/ml/10 mg tissue

Question: And the Tryptase ([1]; 60 μM Etifoxine, 120 min)?
Answer: 152.7 pg/ml/10 mg tissue

Question: And the Tryptase ([1]; 60 μM Etifoxine, 240 min)?
Answer: 345.9 pg/ml/10 mg tissue

Question: What about the Tryptase ([1]; 60 μM Etifoxine, 480 min) of the same compound?
Answer: 689.7 pg/ml/10 mg tissue

Question: What about the Tryptase ([1]; 150 μM Etifoxine) of the same compound?
Answer: 1040.1 pg/ml/10 mg tissue

Question: And the Tryptase ([1]; 150 μM Etifoxine, 120 min)?
Answer: 163.3 pg/ml/10 mg tissue

Question: And the Tryptase ([1]; 150 μM Etifoxine, 240 min)?
Answer: 576.8 pg/ml/10 mg tissue

Question: What about the Tryptase ([1]; 150 μM Etifoxine, 480 min) of the same compound?
Answer: 1042.4 pg/ml/10 mg tissue

Question: What about the Tryptase ([1]; 300 μM Etifoxine, 120 min) of the same compound?
Answer: 71.9 pg/ml/10 mg tissue

Question: And the Tryptase ([1]; 300 μM Etifoxine, 240 min)?
Answer: 459.3 pg/ml/10 mg tissue

Question: What about the Tryptase ([1]; 300 μM Etifoxine, 480 min) of the same compound?
Answer: 991.8 pg/ml/10 mg tissue

Question: What about the Tryptase ([1]; 300 μM Etifoxine, 1440 min) of the same compound?
Answer: 559.4 pg/ml/10 mg tissue

Question: What about the inhibition at 1 µM ([1]; 4 h) of the same compound?
Answer: 0%

Question: And the inhibition at 3 µM ([1]; 4 h)?
Answer: 0%

Question: And the inhibition at 10 µM ([1]; 4 h)?
Answer: 15%

Question: What about the inhibition at 30 µM ([1]; 4 h) of the same compound?
Answer: 56%

Question: What about the inhibition at 60 µM ([1]; 4 h) of the same compound?
Answer: 85%

Question: And the inhibition at 150 µM ([1]; 4 h)?
Answer: 21%

Question: What about the inhibition at 300 µM ([1]; 4 h) of the same compound?
Answer: 53%

Question: And the inhibition at 1 µM ([1]; 8 h)?
Answer: 0%

Question: And the inhibition at 3 µM ([1]; 8 h)?
Answer: 0%

Question: And the inhibition at 10 µM ([1]; 8 h)?
Answer: 28%

Question: What about the inhibition at 30 µM ([1]; 8 h) of the same compound?
Answer: 90%

Question: And the inhibition at 60 µM ([1]; 8 h)?
Answer: 148%

Question: What about the inhibition at 150 µM ([1]; 8 h) of the same compound?
Answer: 77%

Question: What about the inhibition at 300 µM ([1]; 8 h) of the same compound?
Answer: 87%

Question: What about the IC50 ([1]; 4 hours after SCF addition) of the same compound?
Answer: 6.12 µM

Question: What about the IC50 ([1]; 8 hours after SCF addition) of the same compound?
Answer: 9.07 µM

Question: What about the HillSlope ([1]; Tryptase 4 h) of the same compound?
Answer: −2.791

Question: What about the LogIC50 ([1]; Tryptase 4 h) of the same compound?
Answer: 0.7865

Question: What about the HillSlope ([1]; Tryptase 8 h) of the same compound?
Answer: −3.492

Question: And the LogIC50 ([1]; Tryptase 8 h)?
Answer: 0.9578

Question: What about the “inhibition of SCF-triggered tryptase release (degranulation) achieved (complete)” value ([1]; summary statement, mast cells of human nasal pieces) of the same compound?
Answer: 100%

Question: And the inhibition at 10 µM [2, 3]?
Answer: 30%

Question: What about the inhibition at 30 µM [2, 3] of the same compound?
Answer: 68%

Question: What about the “activity (degranulation) of unstimulated IgE-loaded BMMCs” value ([2]; unstimulated (absence of Ag), independently of the concentration studied) of the same compound?
Answer: not significantly affected
